The source of these data is patent US5446039A, “Therapeutic benzazapine compounds” (Imperial Chemical Industries, PLC, priority 1991, dated 1995).

For assay [1], the target named is T1, glycine receptor of the NMDA receptor complex (Rattus norvegicus, UniProt P35439).
T1 construct: Freshly dissected cortices and hippocampi are homogenized in 0.32 M sucrose; from tissue; host or cells: synaptic membranes of cortices and hippocampi of adult male Sprague-Dawley rats
The assay is described as follows: [3H]-glycine binding assay at the N-methyl-D-aspartate receptor, rat neuronal synaptic membranes (cortices and hippocampi). On the set-up: species or system male Sprague-Dawley rats. Conditions: 20 nM [3H]-glycine, pH 7.1, 30 minutes at 4° C. As to the method:
(§1) The actions of compounds of formula I as antagonists at the glycine receptor of the NMDA receptor complex can be shown by standard tests such as the [^3 H]-glycine binding assay, by functional assays in vitro such as tests for measuring glutamate evoked contractions of the guinea pig ileum, and by tests in vivo such as ischemia induced by carotid occlusion in the gerbil model.
In the [^3 H]-glycine binding assay, neuronal synaptic membranes are prepared from adult (about 250 g) male Sprague-Dawley rats. Freshly dissected cortices and hippocampi are homogenized in 0.32 M sucrose (110 mg/mL). Synaptosomes are isolated by centrifuga-tion (1000×g, 10 min), the supernatant is pelleted (20,000×g, 20 min) and resuspended in double-distilled water. The suspension was centrifuged for 20 minutes at 8,000×g. The resulting supernatant and buffy coat are washed twice (48,000×g, 10 mins, resuspension in double-deionized water). The final pellet is quickly frozen (dry iceethanol bath) under double-deionized water and stored at -70° C.
On the day of the experiment, thawed synaptic membranes are homogenized with a Brinkmann Polytron (tm, Brinkmann Instruments, Westbury, N.Y.) tissue homogenizer in 50 mM tris(hydroxymethyl)aminomethane citrate, pH 7.1. The membranes are incubated with 0. 04% Sufact-AMPS X100 (tm, Pierce, Rockford, Ill.) in buffer for 20 minutes at 37° C. and washed six times by centrifugation (48,000×g, 10 min) and resuspended in buffer. The final pellet is homogenized at 200 mg wet weight/mL of the buffer for the binding assay.
For [^3 H]-glycine binding at the N-methyl-D-aspartate receptor, 20 nM [^3 H]-glycine (40-60 Ci/mmol, New England Nuclear, Boston, Mass.) is incubated with the membranes suspended in 50 mM tris (hydroxymethyl)aminomethane citrate, pH 7.1 for 30 minutes at 4° C. Glycine, 1 mM, is used to define the nonspecific binding. […] Radioactivity is estimated by liquid scintillation counting. […]

Assay [2] has as its system NMDA receptor channel complex. The assay is described as follows: inhibition of glutamate evoked contractions of the guinea pig ileum (longitudinal muscle/myenteric plexus). The format is cell-based. The following applies: 100 μM glutamate; test compound added 5 minutes before the glutamate.
Excerpt: as §1
For glutamate evoked contractions of the guinea pig ileum, the methodology is as described previously (Luzzi et. al., Br. J. Pharmacol., 95, 1271-1277 (1989). The longitudinal muscle and associated myenteric plexus are removed and placed in oxygenated modified Krebs-Henseleit solution (118 mM NaCl, 4.7 mM KCl, 2.5 mM CaCl2, 1.2 mM KH2 PO4, 25 mM NaHCO3, and 11 mM glucose). Tissues are suspended on glass rods in organ baths under a resting tension of 0.5 g. After an initial depolarization with 80 mM potassium to remove possible blockade of the NMDA receptor channel complex with magnesium, twitch responses are evoked with 100 μM glutamate. Isometric mechanical responses are recorded. Tissues are equilibrated for at least 2 hours prior to addition of compounds.
A dose response curve for the effect of the unknown on the magnitude of the glutamate-evoked contractions is generated. Glutamate-evoked contractions are generated at 20 minute intervals, with the test compound added 5 minutes before the glutamate. […]

Assay [3] relates to neuronal damage in the hippocampus. The assay is described as follows: gerbil ischemic model (bilateral carotid occlusion), hippocampal neuronal damage rating. The format is in vivo, adult female Mongolian gerbils.
Excerpt: as §1
When testing in vivo using the gerbil ischemic model, adult female Mongolian gerbils (50-70 g) are anesthetized with 2 to 3% halothane. The bilateral common carotid arteries at the neck are exposed and occluded with microaneurysm clips. After 10 min (unless specified), the clips are removed and the blood flow through the carotid arteries is restored and the skin is sutured. Test compounds are administered intraperitoneally both pre- and post-occlusion, for example 45 minutes before and 5 minutes after occlusion of the carotid arteries. Sham-operated animals are treated in the same manner except that the arteries are not clamped. Gross behavioral observations along with motor activity are recorded for 2 hr on the first (24 hr) day following the occlusion. After 4 days, subjects are sacrificed (decapitation), brains are removed, fixed, sectioned and stained with hematoxylin/eosin and cresyl violet.
The brain sections are rated for neuronal damage in the hippocampus using the following rating scale:
1=slight damage (up to 25%)--restricted CA1/subiculum border
2=moderate damage (up to 50%)--obvious damage, restricted to less than half of CA1 field
3=marked damage (up to 75%)--involving greater than half of CA1 field
4=damage extending beyond CA1 field
Results can be reported as the percentage of neuroprotection afforded by a particular dose and dosing regimen.
Sections (7 micron) are evaluated from each brain. Occasionally, asymmetrical damage may be noted and the rating assigned is the average score of the two sides. The average brain damage rating score for each group is recorded, and the damage scores of the drug treated group are compared to the vehicle-treated group using Wilcoxcon-Rank Sum test.
Typical values in this test for compounds according to the invention are illustrated by the following results: for the compound of Example 1, 57% neuroprotection (relative to sham-operated control) when dosed twice with 20 mg/kg body weight intraperitoneally (ip) according to the above regimen; 44% neuroprotection when dosed with 30 mg/kg body weight ip three times at 15, 30, and 45 minutes after induction of ischemia; for the compound of Example 3, 83% neuroprotection when dosed twice with 30 mg/kg body weight ip according to the above regimen; for the compound of Example 1a, 78% neuroprotection when dosed twice with 20 mg/kg body weight ip according to the above regimen.

Setting [4] is: dosed twice with 20 mg/kg ip, pre- and post-occlusion (e.g. 45 min before and 5 min after), Example 1: relative to sham-operated control.

A word on the IC50: it is the concentration needed to halve the response being measured. Low readings indicate greater potency in that assay, high ones weaker potency in that assay. On to `O=c1[nH]c2cc(Br)ccc2c(=O)cc1O` [Example 3, 8-bromo-2,5-dihydro-2,5-dioxo-3-hydroxy-1H-benz[b]azepine], for which the IC50 in assay [1] stood at 97 nM; in assay [2], 1000 nM. Also, the neuroprotection in assay [3] (dosed twice with 30 mg/kg ip, pre- and post-occlusion (e.g. 45 min before and 5 min after)) turned out to be 83%.
In assay [1], `COc1cc(=O)c2ccc(Cl)cc2[nH]c1=O` [Example 1a, 8-Chloro-2,5-dihydro-2,5-dioxo-3-methoxy-1H-benz[b]azepine] gave an IC50 of 1000 nM. In addition, the neuroprotection in assay [3] (setting [4]) is listed as 78%.
Take `O=c1[nH]c2cc(Cl)ccc2c(=O)cc1O` [Example 1, 8-Chloro-2,5-dihydro-2,5-dioxo-3-hydroxy-1H-benz[b]azepine]: the IC50 in assay [1] came to 30 nM; in assay [2], 110 nM. Further, the neuroprotection in assay [3] (30 mg/kg ip three times at 15, 30, and 45 minutes after induction of ischemia) amounted to 44%; in assay [3] (setting [4]) it was 57%.
